Patent US8722849B2, “Polypeptides” (Novo Nordisk A/S, priority 2011, dated 2014)
≈ marks a conversion by molar mass, not a printed value. Where two headings read alike, the source gives them in different places. Starred links: 1 amine or outer side, 2 acyl side, 3 side chain; linkers in the order of their positions; H or OH if unused. Positions of bridges follow the written chain, without caps; N, C: chain ends. Residues, ends and D or L forms follow the SMILES beside them. *: point of attachment. C20 diacid = O=C(O)CCCCCCCCCCCCCCCCCCC(=O)*; γGlu = O=C(O)[C@H](CCC(=O)[*:2])N[*:1]

How the values were obtained:
[1] = molecular target: T1, human amylin receptor (amylin 3(a) receptor: human calcitonin receptor + RAMP-3) (Homo sapiens, UniProt O60896+P30988); experiment: Assay (II)a functional CRE-luciferase assay, human amylin receptor; format: cell-based
T1 construct: expressed in transfected cells; host or cells: BHK570
T1 sequence (P30988 25-474): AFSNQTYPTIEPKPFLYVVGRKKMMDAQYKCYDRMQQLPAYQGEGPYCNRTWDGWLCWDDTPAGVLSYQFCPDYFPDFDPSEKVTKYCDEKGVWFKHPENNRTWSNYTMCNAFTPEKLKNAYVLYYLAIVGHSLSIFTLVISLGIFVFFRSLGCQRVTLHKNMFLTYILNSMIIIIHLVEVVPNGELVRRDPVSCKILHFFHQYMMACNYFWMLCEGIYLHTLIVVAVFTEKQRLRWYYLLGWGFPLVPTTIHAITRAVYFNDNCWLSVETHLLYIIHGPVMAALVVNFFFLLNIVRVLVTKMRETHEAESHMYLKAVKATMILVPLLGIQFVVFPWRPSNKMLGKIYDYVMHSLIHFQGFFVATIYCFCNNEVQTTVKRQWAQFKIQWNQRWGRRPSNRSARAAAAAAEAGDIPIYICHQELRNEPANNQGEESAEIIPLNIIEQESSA
T1 sequence (O60896 24-148 partner): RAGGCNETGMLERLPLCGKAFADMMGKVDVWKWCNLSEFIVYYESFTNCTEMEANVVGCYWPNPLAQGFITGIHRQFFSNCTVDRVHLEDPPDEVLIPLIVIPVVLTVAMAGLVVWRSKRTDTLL

[2] = Assay (IV) determination of solubility; format: physicochemical
In short: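 Eight 100 mM buffers (glycylglycine pH 3.0–5.0, bistrispropane pH 6.0–8.0) each received an equal volume of polypeptide dissolved in water at ~500 nmol/ml. Soluble polypeptide was measured by HPLC following 18 hours at room temperature and centrifugation.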

[3] = molecular target: T2, human calcitonin receptor (Homo sapiens, UniProt P30988); experiment: Assay (II)a functional CRE-luciferase assay, human calcitonin receptor; format: cell-based
T2 construct: expressed in transfected cells; host or cells: BHK570
T2 sequence (P30988 25-474): T1 sequence (P30988 25-474)

[4] = Assay (III) ThT fibrillation assay for physical stability; format: physicochemical; details: ThT fibrillation assay
In short: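 Freshly prepared formulations, pH-adjusted, with 1 μM ThT; four or eight replicates incubated at 37 °C under 960 rpm orbital shaking. Fluorescence (ex 444/em 485 nm) read every 20 min; […]. Peptide concentration measured by RP-HPLC before and after the run.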

[5] = Table 2, BHK amylin 3(a)-receptor/CRE-luc cells
[6] = bistrispropane buffer, pH 6, pH 6.0, read-out: Solubility pH 6.0
[7] = bistrispropane buffer, pH 6.5, pH 6.5, read-out: Solubility pH 6.5
[8] = bistrispropane buffer, pH 7, pH 7.0, read-out: Solubility pH 7.0
[9] = bistrispropane buffer, pH 7.5, pH 7.5, read-out: Solubility pH 7.5
[10] = bistrispropane buffer, pH 8, pH 8.0, read-out: Solubility pH 8.0
[11] = glycylglycine buffer, pH 3, pH 3.0, read-out: Solubility pH 3.0
[12] = glycylglycine buffer, pH 4, pH 4.0, 18 hours at room temperature, Table 2, read-out: Solubility pH 4.0
[13] = glycylglycine buffer, pH 4, pH 4.0, read-out: Solubility pH 4.0
[14] = glycylglycine buffer, pH 5, pH 5.0, read-out: Solubility pH 5.0
[15] = Table 7, human calcitonin (CTa) receptor
[16] = Table 11, read-out: CTa receptor human EC50

Row | Compound | EC50 [1, 5] [nM] | solubility at 18 h [2, 6] [µM] | solubility at 18 h [2, 7] [µM] | solubility at 18 h ([2]; bistrispropane buffer, pH 7, pH 7.0, 18 hours at room temperature, Table 3, read-out: Solubility pH 7.0) [µM] | solubility at 18 h [2, 8] [µM] | solubility at 18 h [2, 9] [µM] | solubility at 18 h [2, 10] [µM] | solubility at 18 h [2, 11] [µM] | solubility at 18 h [2, 12] [µM] | solubility at 18 h [2, 13] [µM] | solubility at 18 h [2, 14] [µM] | EC50 [3, 15] [nM] | ThT pH 4.0 lag time (h) [4] [h] | ThT pH 4.0 lag time [4] [h] | EC50 ([1]; Table 6, human amylin receptor) [nM] | EC50 [3, 16] [nM] | EC50 ([1]; Table 11) [nM] | solubility at 18 h ([2]; pH 8.0, read-out: Solubility pH 8.0) [µM]
1 | CC(C)C[C@H](NC(=O)[C@H](CCCNC(=N)N)NC(=O)[C@H](CCC(N)=O)NC(=O)[C@@H](NC(=O)[C@H](C)NC(=O)[C@@H]1CSSC[C@H](NC(=O)[C@H](CCCCN)NC(=O)CC[C@H](NC(=O)CCCCCCCCCCCCCCCCCCC(=O)O)C(=O)O)C(=O)N[C@@H](CC(N)=O)C(=O)N[C@@H]([C@@H](C)O)C(=O)N[C@@H](C)C(=O)N[C@@H]([C@@H](C)O)C(=O)N1)[C@@H](C)O)C(=O)N[C@@H](C)C(=O)N[C@@H](CCC(=O)O)C(=O)N[C@@H](Cc1ccccc1)C(=O)N[C@@H](CC(C)C)C(=O)N[C@H](C(=O)N[C@@H](CCCNC(=N)N)C(=O)N[C@@H](CO)C(=O)N[C@@H](CO)C(=O)N[C@@H](CCC(N)=O)C(=O)N[C@@H](CC(N)=O)C(=O)N[C@@H](Cc1ccccc1)C(=O)NCC(=O)N[C@@H](C)C(=O)N1CCC[C@H]1C(=O)N[C@@H](CC(C)C)C(=O)N[C@@H](CO)C(=O)N[C@@H](CO)C(=O)N[C@H](C(=O)N[C@@H](CC(N)=O)C(=O)N[C@H](C(=O)NCC(=O)N[C@@H](CO)C(=O)N[C@@H](CC(N)=O)C(=O)N[C@H](C(=O)N1CCC[C@H]1C(N)=O)[C@@H](C)O)C(C)C)[C@@H](C)O)C(C)C [Example 166, N-alpha-[(S)-4-Carboxy-4-(19-carboxynonadecanoylamino)butyryl]-[Glu14,Arg18,Gln21,Ala25,Pro26,Ser28,Ser29,Pro37]-pramlintide] ({C20 diacid-γGlu}-KCNTATCATQRLAEFLVRSSQNFGAPLSSTNVGSNTP-NH2; disulfide 2-7 (inferred); C-terminus assumed) | 0.039 | > 200 | > 200 | > 200 | > 200 | > 200 | > 200 | > 200 | > 200 | > 200 | > 200 | 0.034 | 1.3 |  |  |  |  | 
2 | CC[C@H](C)[C@H](NC(=O)[C@@H]1CCCN1C(=O)CNC(=O)[C@H](Cc1ccccc1)NC(=O)[C@H](CC(N)=O)NC(=O)[C@H](CC(N)=O)NC(=O)[C@H](CO)NC(=O)[C@H](CO)NC(=O)[C@H](Cc1c[nH]cn1)NC(=O)[C@H](Cc1c[nH]cn1)NC(=O)[C@H](CC(C)C)NC(=O)[C@H](Cc1ccccc1)NC(=O)[C@H](CCC(=O)O)NC(=O)[C@H](C)NC(=O)[C@H](CC(C)C)NC(=O)[C@H](CCCNC(=N)N)NC(=O)[C@H](CCC(N)=O)NC(=O)[C@@H](NC(=O)[C@H](C)NC(=O)[C@@H]1CSSC[C@H](NC(=O)[C@H](CCCCN)NC(=O)[C@H](Cc2c[nH]cn2)NC(=O)[C@H](Cc2c[nH]cn2)NC(=O)CC[C@H](NC(=O)CCCCCCCCCCCCCCCCCCC(=O)O)C(=O)O)C(=O)N[C@@H](CC(N)=O)C(=O)N[C@@H]([C@@H](C)O)C(=O)N[C@@H](C)C(=O)N[C@@H]([C@@H](C)O)C(=O)N1)[C@@H](C)O)C(=O)N[C@@H](CC(C)C)C(=O)N1CCC[C@H]1C(=O)N1CCC[C@H]1C(=O)N[C@H](C(=O)N[C@@H](CC(N)=O)C(=O)N[C@H](C(=O)NCC(=O)N[C@@H](CO)C(=O)N[C@@H](Cc1c[nH]cn1)C(=O)N[C@H](C(=O)N[C@@H](Cc1ccc(O)cc1)C(N)=O)[C@@H](C)O)C(C)C)[C@@H](C)O [Example 67, N-alpha-[(S)-4-Carboxy-4-(19-carboxynonadecanoylamino)butyryl]-His-His-[Glu14,His17,His35]-pramlintide] ({C20 diacid-γGlu}-HHKCNTATCATQRLAEFLHHSSNNFGPILPPTNVGSHTY-NH2; disulfide 4-9 (inferred); C-terminus assumed) | 0.0965 | > 200 | 166 (≈ 789 µg/mL) |  | 15 (≈ 71.3 µg/mL) | 24 (≈ 114 µg/mL) | 60 (≈ 285 µg/mL) | > 200 | > 200 | > 200 | > 200 | 0.115 | >45 | >45 |  |  |  | 
3 | CC[C@H](C)[C@H](NC(=O)[C@@H]1CCCN1C(=O)CNC(=O)[C@H](Cc1ccccc1)NC(=O)[C@H](CC(N)=O)NC(=O)[C@H](CC(N)=O)NC(=O)[C@H](CO)NC(=O)[C@H](CO)NC(=O)[C@H](Cc1c[nH]cn1)NC(=O)[C@@H](NC(=O)[C@H](CC(C)C)NC(=O)[C@H](Cc1ccccc1)NC(=O)[C@H](CC(N)=O)NC(=O)[C@H](C)NC(=O)[C@H](CC(C)C)NC(=O)[C@H](CCCNC(=N)N)NC(=O)[C@H](CCC(N)=O)NC(=O)[C@@H](NC(=O)[C@H](C)NC(=O)[C@@H]1CSSC[C@H](NC(=O)[C@H](CCC(=O)O)NC(=O)[C@H](CCCNC(=N)N)NC(=O)[C@H](CCC(=O)O)NC(=O)CC[C@H](NC(=O)CCCCCCCCCCCCCCCCCCC(=O)O)C(=O)O)C(=O)N[C@@H](CC(N)=O)C(=O)N[C@@H]([C@@H](C)O)C(=O)N[C@@H](C)C(=O)N[C@@H]([C@@H](C)O)C(=O)N1)[C@@H](C)O)C(C)C)C(=O)N[C@@H](CC(C)C)C(=O)N1CCC[C@H]1C(=O)N1CCC[C@H]1C(=O)N[C@H](C(=O)N[C@@H](CC(N)=O)C(=O)N[C@H](C(=O)NCC(=O)N[C@@H](CO)C(=O)N[C@@H](CC(N)=O)C(=O)N[C@H](C(=O)N1CCC[C@H]1C(N)=O)[C@@H](C)O)C(C)C)[C@@H](C)O [Example 122, N-alpha-[(S)-4-Carboxy-4-(19-carboxynonadecanoylamino)butyryl]-Glu-Arg-[Glu1,Pro37]-pramlintide] ({C20 diacid-γGlu}-ERECNTATCATQRLANFLVHSSNNFGPILPPTNVGSNTP-NH2; disulfide 4-9 (inferred); C-terminus assumed) |  | > 200 | > 200 |  | > 200 | > 200 | > 200 | > 200 |  | > 200 | > 200 |  | 0.7 |  | 0.063 | 0.061 |  | 
4 | CC[C@H](C)[C@H](NC(=O)[C@@H]1CCCN1C(=O)CNC(=O)[C@H](Cc1ccccc1)NC(=O)[C@H](CC(N)=O)NC(=O)[C@H](CC(N)=O)NC(=O)[C@H](CO)NC(=O)[C@H](CO)NC(=O)[C@H](Cc1c[nH]cn1)NC(=O)[C@@H](NC(=O)[C@H](CC(C)C)NC(=O)[C@H](Cc1ccccc1)NC(=O)[C@H](CC(N)=O)NC(=O)[C@H](C)NC(=O)[C@H](CC(C)C)NC(=O)[C@H](CCCNC(=N)N)NC(=O)[C@H](CCC(N)=O)NC(=O)[C@@H](NC(=O)[C@H](C)NC(=O)[C@@H]1CSSC[C@H](NC(=O)[C@H](CCCNC(=N)N)NC(=O)CC[C@H](NC(=O)CCCCCCCCCCCCCCCCCCC(=O)O)C(=O)O)C(=O)N[C@@H](CC(N)=O)C(=O)N[C@@H]([C@@H](C)O)C(=O)N[C@@H](C)C(=O)N[C@@H]([C@@H](C)O)C(=O)N1)[C@@H](C)O)C(C)C)C(=O)N[C@@H](CC(C)C)C(=O)N1CCC[C@H]1C(=O)N1CCC[C@H]1C(=O)N[C@H](C(=O)N[C@@H](CC(N)=O)C(=O)N[C@H](C(=O)NCC(=O)N[C@@H](CO)C(=O)N[C@@H](Cc1c[nH]cn1)C(=O)N[C@H](C(=O)N[C@@H](Cc1ccc(O)cc1)C(N)=O)[C@@H](C)O)C(C)C)[C@@H](C)O [Example 98] ({C20 diacid-γGlu}-RCNTATCATQRLANFLVHSSNNFGPILPPTNVGSHTY-NH2; disulfide 2-7 (inferred); C-terminus assumed) |  | 85 (≈ 379 µg/mL) | 1 (≈ 4.45 µg/mL) |  | 1 (≈ 4.45 µg/mL) | 1 (≈ 4.45 µg/mL) |  | > 200 |  | > 200 | > 200 |  | 2.6 |  |  | 0.193 | 0.0745 | 1 (≈ 4.45 µg/mL)
